We go through 6 compounds from patent US20050112199A1, “Therapeutic regimens for administering drug combinations” (priority 2003, published 2005).

For data set [1] the following is noted: monotherapy, cited from earlier work.
Data set [2] in a line: PK study of amoxapine and prednisolone administered orally to humans. The conditions noted are these: amoxapine/prednisolone combination PK study, oral.
A short description of data set [3]: PK study of paroxetine and prednisolone administered orally to humans. The class given is in vivo, human. The conditions noted are these: paroxetine/prednisolone combination PK study, oral.

Where two headings read alike, the source gives them in different places.

Take `CNCCC=C1c2ccccc2CCc2ccccc21` [Nortriptyline]: in data set [1] (oral, 25 mg), the “Mean Tmax” value is 8 h and the “Mean elimination half life” value was 16 h.
Turning to `OCCN(CCO)c1nc(N2CCCCC2)c2nc(N(CCO)CCO)nc(N3CCCCC3)c2n1` [Dipyridamole, 2,6-bis(diethanolamino)-4,8-dipiperidinopyrimido(5,4-d)pyrimidine], in data set [1] (oral, 25 mg), the “Mean Tmax” value was 0.75 h and the “Mean elimination half life” value was 10 h.
As to `Clc1ccc2c(c1)C(N1CCNCC1)=Nc1ccccc1O2` [Amoxapine], in data set [2] (100 mg), the “Mean Tmax” value is 2.4 h and the “Mean elimination half life” value stood at 9.7 h.
As for `C[C@]12C=CC(=O)C=C1CC[C@@H]1[C@@H]2[C@@H](O)C[C@@]2(C)[C@H]1CC[C@]2(O)C(=O)CO` [Prednisolone], the “Mean Tmax” value in data set [3] (3 mg) is 1.9 h; in data set [1] (oral, 3 mg), 1.9 h; in data set [2] (3 mg), 1.9 h. The “Mean elimination half life” value in data set [3] (3 mg) was 2.7 h; in data set [1] (oral, 3 mg), 2.7 h; in data set [2] (3 mg), 4.5 h.
As to `CCCC1O[C@@H]2C[C@H]3[C@@H]4CCC5=CC(=O)C=C[C@]5(C)[C@H]4[C@@H](O)C[C@]3(C)[C@]2(C(=O)CO)O1` (stereo partly shown) [Budesonide], in data set [1] (inhaled, 200 μg), the “Mean Tmax” value was 0.5 h and the “Mean elimination half life (Hours)” value was “ca. 2 Hours”.
For `Fc1ccc([C@@H]2CCNC[C@H]2COc2ccc3c(c2)OCO3)cc1` [Paroxetine], in data set [3] (20 mg), the “Mean Tmax” value came out at 7 h and the “Mean elimination half life” value came out at 20.2 h.
